Assay results as given in publication PMC10649961, “Novel Mitochondria-Targeted Amphiphilic Aminophosphonium Salts and Lipids Nanoparticles: Synthesis, Antitumor Activity and Toxicity” (Nanomaterials, 2023).

Key:
[1] = test system: Staphylococcus aureus ATCC 6538 P FDA 209P; assay: Antimicrobial activity, serial microdilutions, Sa; assay type: cell-based; details: Staphylococcus aureus
Outline: (§1)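 Compounds were serially diluted in broth: Mueller-Hinton for the bacterial strains, Sabouraud for the yeast. Each determination was done in triplicate.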

[2] = test system: Bacillus cereus ATCC 10702 NCTC 8035; assay: Antimicrobial activity, serial microdilutions, Bc; assay type: cell-based; details: Bacillus cereus
Outline: as §1

[3] = test system: Enterococcus faecalis ATCC 29212; assay: Antimicrobial activity, serial microdilutions, Ef; assay type: cell-based; design: key to Minimum Inhibitory Concentration (MIC) / Minimum bactericidal and fungicidal concentrations (MBC, MFC): – means non-active
Outline: as §1

MRSA-1 = assay: Antimicrobial activity, serial microdilutions, MRSA-1; assay type: cell-based, S. aureus; details: Staphylococcus aureus
Outline: as §1

MRSA-2 = assay: Antimicrobial activity, serial microdilutions, MRSA-2; assay type: cell-based, S. aureus; details: Staphylococcus aureus
Outline: as §1

[4] = test system: Escherichia coli ATCC 25922; assay: Antimicrobial activity, serial microdilutions, Ec; assay type: cell-based; design: key to Minimum Inhibitory Concentration (MIC) / Minimum bactericidal and fungicidal concentrations (MBC, MFC): – means non-active
Outline: as §1

[5] = test system: Pseudomonas aeruginosa ATCC 9027; assay: Antimicrobial activity, serial microdilutions, Pa; assay type: cell-based; design: key to Minimum Inhibitory Concentration (MIC) / Minimum bactericidal and fungicidal concentrations (MBC, MFC): – means non-active
Outline: as §1

[6] = test system: Candida albicans ATCC 10231; assay: Antimicrobial activity, serial microdilutions, Ca; assay type: cell-based; design: key to Minimum Inhibitory Concentration (MIC) / Minimum bactericidal and fungicidal concentrations (MBC, MFC): – means non-active; details: Ca
Outline: as §1

M-HeLa [7] = details: calculated relative to the cell line WI38 (a)
MCF-7 [8] = details: calculated relative to the cell line WI38 (a)
HuTu 80 [9] = details: calculated relative to the cell line WI38 (a)
PANC-1 [10] = details: calculated relative to the cell line WI38 (a)
A549 [11] = details: calculated relative to the cell line WI38 (a)
PC3 = details: calculated relative to the cell line WI38 (a)
T98G [12] = details: calculated relative to the cell line WI38 (a)
Hep G2 [13] = details: calculated relative to the cell line WI38 (a)
SK-OV-3 [14] = details: reference normal cell line not marked at the place (ns cells)
DU-145 [15] = details: calculated relative to the cell line WI38 (a)
M-HeLa [16] = assay: cells; details: Homo sapiens, 48 h, read-out: Cytotoxic Effects (IC50)
MCF-7 [17] = assay: cells; details: Homo sapiens, MCF7, 48 h, read-out: Cytotoxic Effects (IC50)
HuTu 80 [18] = assay: cells; details: Homo sapiens, HuTu80, 48 h, read-out: Cytotoxic Effects (IC50)
PANC-1 [19] = assay: cells; details: Homo sapiens, PANC-1, 48 h, read-out: Cytotoxic Effects (IC50)
A549 [20] = assay: cells; details: Homo sapiens, A549, 48 h, read-out: Cytotoxic Effects (IC50)
T98G [21] = assay: cells; details: Homo sapiens, 48 h, read-out: Cytotoxic Effects (IC50)
Hep G2 [22] = assay: cells; details: Homo sapiens, HepG2, 48 h, read-out: Cytotoxic Effects (IC50)
SK-OV-3 [23] = assay: cells; details: Homo sapiens, SK-OV-3, 48 h, read-out: Cytotoxic Effects (IC50)
DU-145 [24] = assay: cells; details: Homo sapiens, DU-145, 48 h, read-out: Cytotoxic Effects (IC50), DU-145, MTT assay, 48 h
[25] = read-out: Minimum Inhibitory Concentration (MIC)
[26] = read-out: Minimum bactericidal and fungicidal concentrations (MBC, MFC)

CCCCCCCC[P+](c1ccccc1)(c1ccccc1)c1ccccc1 [compound 8, Octyltriphenylphosphonium iodide, reference compound]
MIC [1, 25]: 0.9 ± 0.07 µM | MBC [1, 26]: 62.5 ± 5.3 µM | MIC ([2]; Bc, read-out: Minimum Inhibitory Concentration (MIC)): 0.9 ± 0.07 µM | MBC [2, 26]: 500 ± 47 µM | Minimum bactericidal and fungicidal concentrations (MBC, MFC) [3]: – | MIC ([3]; Enterococcus faecalis, ATCC29212, read-out: Minimum Inhibitory Concentration (MIC)): 15.6 ± 1.2 µM | MIC (MRSA-1; [25]): 1.9 ± 0.1 µM | MBC (MRSA-1; [26]): 15.6 ± 1.2 µM | MIC (MRSA-2; [25]): 3.9 ± 0.3 µM | MBC (MRSA-2; [26]): 15.6 ± 1.3 µM | Minimum bactericidal and fungicidal concentrations (MBC, MFC) [4]: – | MIC ([4]; Escherichia coli, ATCC25922, read-out: Minimum Inhibitory Concentration (MIC)): 500 ± 47 µM | Minimum Inhibitory Concentration (MIC) [5]: – | Minimum bactericidal and fungicidal concentrations (MBC, MFC) [5]: – | Minimum Inhibitory Concentration (MIC) [6]: – | Minimum bactericidal and fungicidal concentrations (MBC, MFC) [6]: – | selectivity index (SI) (M-HeLa [7]): 20 | selectivity index (SI) (MCF-7 [8]): 2.2 | selectivity index (SI) (HuTu 80 [9]): 102 | selectivity index (SI) (PANC-1 [10]): 31 | selectivity index (SI) (A549 [11]): 1.1 | selectivity index (SI) (PC3): 23 | selectivity index (SI) (T98G [12]): 15 | selectivity index (SI) (Hep G2 [13]): 5.8 | selectivity index (SI) (SK-OV-3 [14]): ns (ns—no selectivity) | selectivity index (SI) (DU-145 [15]): 23 | IC50 (M-HeLa [16]): 450 ± 40 nM | IC50 (MCF-7 [17]): 4200 ± 300 nM | IC50 (HuTu 80 [18]): 90 ± 6 nM | IC50 (PANC-1 [19]): 300 ± 20 nM | IC50 (A549 [20]): 8700 ± 700 nM | IC50 (T98G [21]): 600 ± 50 nM | IC50 (Hep G2 [22]): 1600 ± 100 nM | IC50 (SK-OV-3 [23]): 9800 ± 700 nM | IC50 (DU-145 [24]): 400 ± 30 nM
